For ten compounds, TGI and GI50 results are on record in PubChem BioAssay (NCI).

Test systems include 786-0 renal; DU-145 prostate; HOP-92 NSCLC; NCI-H226 lung; NCI-H23 lung; NCI-H460 lung; OVCAR-3 ovarian; SF-539 CNS; SW-620 colon; NCI-H522 lung.
What all share (assay): DTP human tumour cell line panel, 48 h

Where “and” joins values, the source holds several entries; their conditions need not be identical. Identical values can stand only once.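 Five concentrations, 48 hours, 96-well plates. GI50 = concentration required for 50% inhibition of growth. TGI: concentration producing complete growth inhibition.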 Bounds are passed on as bounds.

The TGI is the concentration at which net growth stops. High values mean less potent growth arrest, low ones more potent growth arrest. As a reminder, the GI50 is the concentration giving 50% growth inhibition.

Take `Nc1ccc(/C=C/c2ccc3cccnc3c2)cc1`: the concentration for total growth inhibition (TGI) with 786-0 renal, in the assay on DU-145 prostate, in the assay on HOP-92 NSCLC, with NCI-H226 lung, in the assay on NCI-H23 lung and in the assay on NCI-H460 lung was more than 100 µM throughout. In addition, the TGI in the assay on OVCAR-3 ovarian, in the assay with SF-539 CNS and in the assay on SW-620 colon was more than 100 µM in each case.

As to `C[C@H]1C=C2C(=O)O[C@H]3CC[C@@H](C1)[C@@]23O`, the TGI in the assay with 786-0 renal is 12.2 µM; in the assay on HOP-92 NSCLC it was 16.3 µM; with NCI-H226 lung it was 29.3 µM; in the assay on NCI-H23 lung, 9.53 µM; in the assay on NCI-H460 lung, 19.4 µM; in the assay on NCI-H522 lung, 8.15 µM. The TGI in the assay with OVCAR-3 ovarian came out at 16.9 µM; in the assay with SF-539 CNS, 4.25 µM; with SW-620 colon, 10.3 µM.

On to `O=c1/c(=N\Nc2ccccc2)c2cccc3ccc4cccc1c4c32`, for which the TGI in the assay with 786-0 renal, with DU-145 prostate, in the assay with HOP-92 NSCLC, in the assay on NCI-H226 lung, in the assay on NCI-H23 lung and in the assay on NCI-H522 lung was more than 100 µM throughout. The TGI in the assay on OVCAR-3 ovarian and with SW-620 colon was more than 100 µM throughout.

Turning to `CC(=O)Oc1ccc2c(c1)C(=O)c1nc(C)c(C)nc1C2=O`, the TGI is more than 96.5 µM in the assay on 786-0 renal; more than 100 µM with HOP-92 NSCLC; more than 100 µM with NCI-H226 lung; more than 100 µM in the assay with NCI-H23 lung; more than 90.1 µM in the assay with NCI-H460 lung; 89.6 µM in the assay with NCI-H522 lung. Moreover, the results for the TGI in the assay with OVCAR-3 ovarian, in the assay with SF-539 CNS and in the assay on SW-620 colon were 59.1 µM, 55.4 µM and more than 100 µM, respectively.

As for `CO/N=C(\COc1ccc2oc(-c3ccccc3)cc(=O)c2c1)c1ccc(F)cc1`, the GI50 in the assay on 786-0 renal was 21.3 µM; in the assay on DU-145 prostate, 25 µM; with NCI-H226 lung, 29.7 µM; in the assay on NCI-H23 lung it was 23.1 µM; in the assay on NCI-H522 lung it was 15.4 µM; with OVCAR-3 ovarian, more than 100 µM. For the same compound, the figures for the GI50 with SF-539 CNS and in the assay with SW-620 colon were 20.9 µM and 30.3 µM, respectively. The TGI is 43.7 µM in the assay with 786-0 renal; 76.5 µM in the assay on DU-145 prostate; more than 100 µM in the assay with NCI-H226 lung; 64.7 µM with NCI-H23 lung; 40.5 µM with NCI-H522 lung; more than 100 µM with OVCAR-3 ovarian. Besides, the TGI in the assay on SF-539 CNS was 42.9 µM; in the assay on SW-620 colon, more than 100 µM.

Regarding `CC[PH+](CC)CC.[Cl][Au]`, the GI50 is 1.42 µM in the assay with 786-0 renal; 1.28 µM in the assay on HOP-92 NSCLC; 4.49 µM with NCI-H226 lung; 1.68 µM with NCI-H23 lung; 16.2 µM in the assay on NCI-H460 lung; 0.122 µM in the assay with NCI-H522 lung. Besides, the figures for the GI50 in the assay on OVCAR-3 ovarian, with SF-539 CNS and with SW-620 colon were 1.89 µM, 2.35 µM and 0.567 µM, respectively. Further, the concentration for total growth inhibition (TGI) came to 2.74 µM in the assay with 786-0 renal; 2.72 µM in the assay on HOP-92 NSCLC; 9.32 µM in the assay on NCI-H226 lung; 3.42 µM with NCI-H23 lung; 47.9 µM in the assay on NCI-H460 lung; 0.31 µM in the assay on NCI-H522 lung. In addition, the TGI with OVCAR-3 ovarian is 3.42 µM; in the assay with SF-539 CNS, 7.36 µM; in the assay with SW-620 colon it was 1.98 µM.

For the compound `COC(=O)[C@H](Cc1cn(C)cn1)NC(=O)[C@H](Cc1ccccc1)NC(=O)Nc1cc(C(F)(F)F)cc(C(F)(F)F)c1`, the GI50 is 16.8 µM in the assay on 786-0 renal; 13.8 µM with DU-145 prostate; 19.8 µM with NCI-H226 lung; 17.4 µM in the assay on NCI-H23 lung; 14.2 µM with NCI-H460 lung; 11.7 µM with NCI-H522 lung. For the same compound, the GI50 is 2.25 µM and 3.46 µM in the assay on OVCAR-3 ovarian; 17.2 µM with SF-539 CNS; 14.5 µM with SW-620 colon. In addition, the TGI with 786-0 renal turned out to be 31.9 µM; in the assay with DU-145 prostate, 27 µM; with NCI-H226 lung, 43.8 µM; in the assay with NCI-H23 lung, 33 µM; in the assay with NCI-H460 lung, 29.7 µM; with NCI-H522 lung it was 24.7 µM. In addition, the TGI in the assay on OVCAR-3 ovarian was 5.42 µM and 11.1 µM; in the assay on SF-539 CNS it was 33 µM; in the assay with SW-620 colon it was 30.6 µM.

For `CC(=O)[CH-]C(=O)c1ccccc1.CC(=O)[CH-]C(=O)c1ccccc1.[O-]c1ccc2c(c1)OCO2.[O-]c1ccc2c(c1)OCO2.[Ti+4]`, the GI50 in the assay with 786-0 renal is 21.1 µM; in the assay on HOP-92 NSCLC, 21.1 µM; in the assay on NCI-H226 lung it was 24.9 µM; in the assay on NCI-H23 lung, 22.4 µM; in the assay with NCI-H460 lung it was 21.1 µM; in the assay on NCI-H522 lung it was 16.5 µM. In addition, the GI50 in the assay with OVCAR-3 ovarian is 26.8 µM; in the assay with SF-539 CNS, 28.4 µM; in the assay on SW-620 colon it was 32.1 µM. In addition, the TGI with 786-0 renal is 80.7 µM; in the assay with HOP-92 NSCLC it was more than 100 µM; with NCI-H226 lung, 85 µM; with NCI-H23 lung it was 64.4 µM; in the assay on NCI-H460 lung, 72.6 µM; in the assay with NCI-H522 lung, 42.1 µM. Moreover, the TGI with OVCAR-3 ovarian, in the assay on SF-539 CNS and in the assay with SW-620 colon was more than 100 µM in each case.

For `CCOC(=O)/C=C/c1cccc(F)c1`, the total growth inhibition concentration (TGI) in the assay on 786-0 renal, in the assay on DU-145 prostate, in the assay with HOP-92 NSCLC, in the assay with NCI-H226 lung, in the assay with NCI-H23 lung and in the assay with NCI-H460 lung was more than 100 µM throughout. Also, the total growth inhibition concentration (TGI) with NCI-H522 lung, in the assay on SF-539 CNS and with SW-620 colon was more than 100 µM in each case.

For `CCCCn1c(=O)c(/C=C/C(=O)/C=C/c2cc3ccccc3n(CCCC)c2=O)cc2ccccc21`, the GI50 is 1.35 µM in the assay with 786-0 renal; 1.47 µM in the assay with DU-145 prostate; 1.96 µM in the assay with HOP-92 NSCLC; 2.51 µM in the assay on NCI-H226 lung; 1.8 µM in the assay with NCI-H460 lung; 1.86 µM in the assay with NCI-H522 lung. In addition, the GI50 in the assay on OVCAR-3 ovarian was 1.21 µM; in the assay on SF-539 CNS it was 1.47 µM; with SW-620 colon, 0.859 µM. Also, the total growth inhibition concentration (TGI) with 786-0 renal stood at 3.08 µM; with DU-145 prostate, 2.78 µM; in the assay with HOP-92 NSCLC, 4.12 µM; in the assay with NCI-H226 lung, 6 µM; in the assay on NCI-H460 lung it was 3.49 µM; in the assay on NCI-H522 lung, 4.07 µM. Also, the TGI in the assay with OVCAR-3 ovarian is 2.47 µM; in the assay on SF-539 CNS, 3.57 µM; with SW-620 colon, 2.84 µM.
